Test results: US8632821B2, “Use of xenon for treating hypersensitivity to pain” (L'Air Liquide, Société Anonyme pour l'Etude et …, priority 2009, dated 2014)
“Also recorded” adds a separate entry of the source.

Test system: male Sprague-Dawley rats
Test: Carrageenan model of inflammatory pain, paw-pressure vocalization test (Randall-Selitto)
Type: in vivo, rat
Method: In order to show the efficacy of the gas mixture according to the invention in the prevention of post-traumatic hyperalgesia, a model of inflammatory pain was used in rats, namely male Sprague-Dawley rats, in the context of preclinical studies.
An inflammatory product, carrageenan (0.2 ml of saline solution with 1% of carrageenan), was injected subcutaneously into the sole of the hind paw of a rat.
Two xenon concentrations by volume were tested, namely: • a ternary gas mixture made up of 25% Xe+25% N2+50% O2, and • a binary gas mixture made up of 50% Xe+50% O2.
The nociceptive threshold, i.e. the pain threshold, was evaluated using the paw-pressure vocalization test (Randall-Selitto), in which increasing pressures (measured in grams) are applied to the hind paw of the rat until the rat squeaks.
More specifically, on Day 0 (D0), the inflammatory product, i.e. the carrageenan (Car), was injected into a hind paw of the rats.
The exposure of the rats to the gases by inhalation begins 1 h 45 after the injection of Car and lasts for 1 h 45. The nociceptive threshold is evaluated 1 h 30, 2 h 30, 3 h 00, 3 h 30 and 4 h 30 after the injection of Car and then once a day until a return to the basal nociceptive threshold.

[Xe] [xenon]
analgesic effect during administration, 50% content compared with 25% content (50% Xe+50% O2 (FIG. 2A) versus 25% Xe+25% N2+50% O2 (FIG. 1A), inflamed paw): more effective
analgesic effect during administration (nociceptive threshold) (inhaled xenon 25% or 50% by volume, exposure 1 h 45 starting 1 h 45 after carrageenan, inflamed paw): has an analgesic effect
duration of delayed hyperalgesia on the inflamed paw (xenon at 25% (25% Xe+25% N2+50% O2) inhaled 1 h 45, control air/Car 4 days, FIG. 1A): 2 days
delayed hyperalgesia on the inflamed paw (xenon at 50% (50% Xe+50% O2) inhaled 1 h 45, FIG. 2A): totally prevents
delayed hyperalgesia on the non-inflamed paw (xenon at 50% (50% Xe+50% O2) inhaled 1 h 45, FIG. 2B): totally prevents; also recorded: completely prevents
